Experiments:
Format in all cases: cell-based
Fusarium sp. = assay: MIC in Tryptic Soy Broth, compounds alone and in mixtures; details: Table 2, 28° C., 7 days
From the text: (§1) ^a Compounds were serially diluted in Tryptic soy Broth (DIFCO),
(§2) ^b Each dilution contained 10^6 bacteria/ml of 10^5 fungi/ml.
(§3) ^a Stock solutions of ZP in dimethylsulfoxide and PB in sterile water

Pseudomonas fluorescens [1] = assay: as above; details: Table 2, 28° C., 6 days
Description: (§4) Determinations of minimum inhibitory concentrations (MIC's) of the two compounds (pyrithione salts and/or polymyxin sulfate) in a nutrient broth (alone and in mixtures) were conducted to evaluate interactions. Stock solutions of pyrithione salts and/or polymyxin salts were diluted in Tryptic Soy Broth (Difco), and the dilutions were inoculated with an equal volume of bacterial culture (10^6 /ml) or fungal spore suspension (10^5 /ml) in Tryptic Soy Broth and incubated at 28° C. for 3-7 days.
(§5) The interactions of the antimicrobials were determined according to accepted procedures (M. C. Berenbaum [Tables 1 and 2] and P. F. Dougherty "Microdilution Transfer Plate Technique for Determining In Vitro Synergy of Antimicrobial Agents", ANTIMICROBIAL AGENTS AND CHEMOTHERAPY, Vol. 11, No. 2, p. 225-228 (Feb. 1977, American Society for Microbiology) [Tables 3 and 4]). The concentration of each agent in the combination that inhibits the organisms is expressed as a fraction of the concentration that causes the same effect when the same agent is tested alone (i.e., its fractional inhibitory concentration, FIC). If the sum of the FIC's is 1, the combination is additive in its antimicrobial effect; if the sum is <1, the combination is synergistic; and if the sum is >1, the combination is antagonistic.
as §1, §2, §3

Pseudomonas Stutzeri = assay: as above; details: Table 2, 28° C., 6 days
Description: as §4, §5, §1, §2, §3

Fusarium solani = assay: as above; details: Table 2, 28° C., 7 days
Description: as §4, §5, §1, §2, §3

Chaetomium globosium = assay: as above; details: Table 2, 28° C., 7 days
Description: as §4, §5, §1, §2, §3

Pseudomonas oleovorans = assay: as above; details: Table 2, 28° C., 6 days
Description: as §4, §5, §1, §2, §3

Proteus mirabilis [2] = assay: as above; details: Table 2, 28° C., 6 days
Description: as §4, §5, §1, §2, §3

Aureobasidium pullulans = assay: as above; details: Table 2, 28° C., 7 days
Description: as §4, §5, §1, §2, §3

Pseudomonas rubescens = assay: as above; details: Table 2, 28° C., 6 days
Description: as §4, §5, §1, §2, §3

Candida albicans [3] = assay: as above; details: Table 2, 28° C., 7 days
Description: as §4, §5, §1, §2, §3

Citrobacter freundii = assay: as above; details: Table 2, 28° C., 6 days
Description: as §4, §5, §1, §2, §3

Penicillin pinophilium = assay: as above; details: Table 2, 28° C., 7 days
Description: as §4, §5, §1, §2, §3

Gliocladium virens = assay: as above; details: Table 2, 28° C., 7 days
Description: as §4, §5, §1, §2, §3

[4] = test system: Trichophyton mentagrophytes; assay: as above; details: Table 2, 28° C., 7 days
Description: as §4, §5, §1, §2, §3

Pseudomonas aeruginosa [5] = assay: as above; details: Table 2, 28° C., 6 days
Description: as §4, §5, §1, §2, §3

Aspergillus niger = assay: as above; details: Table 2, 28° C., 7 days
Description: as §4, §5, §1, §2, §3

Cephalosporium sp. = assay: as above; details: Table 2, 28° C., 7 days
Description: as §4, §5, §1, §2, §3

Alcaligens faecalis = assay: as above; details: Table 2, 28° C., 6 days
Description: as §4, §5, §1, §2, §3

Pseudomonas fluorescens [6] = assay: Checkerboard MIC Test in Tryptic Soy Broth; details: Table 4, 28° C., 3 days
Description: as §4, §5, §2

Proteus mirabilis [7] = assay: Checkerboard MIC Test in Tryptic Soy Broth; details: Table 4, 28° C., 3 days
Description: as §4, §5, §2

Candida albicans [8] = assay: Checkerboard MIC Test in Tryptic Soy Broth; details: Table 4, 28° C., 5 days
Description: as §4, §5, §2

[9] = test system: Trichophyton mentagrophytes; assay: Checkerboard MIC Test in Tryptic Soy Broth; details: Table 4, 28° C., 5 days
Description: as §4, §5, §2

Pseudomonas aeruginosa [10] = assay: Checkerboard MIC Test in Tryptic Soy Broth; details: Table 4, 28° C., 3 days
Description: as §4, §5, §2

[11] = alone, Tryptic Soy Broth, PB sulfate 7730 units/mg
[12] = concentration of the component in ZP+PB mixture, ZP/PB ratio 1/8-1
[13] = concentration of the component in ZP+PB mixture, ZP/PB ratio 1/32-1/8
[14] = alone, checkerboard, PE methanesulfonate, Na+, 14,310 units/mg

zinc pyrithione [ZP]
Minimum Inhibitory Concentration, Compound Used Alone (Fusarium sp.; [11]): 64.0 ppm | Minimum Inhibitory Concentration, Mixture (Fusarium sp.; [12]): 18.7 ppm | Minimum Inhibitory Concentration, Compound Used Alone (Pseudomonas fluorescens [1]; [11]): 106.7 ppm | Minimum Inhibitory Concentration, Mixture (Pseudomonas fluorescens [1]; concentration of the component in ZP+PB mixture, ZP/PB ratio 8-16): 4.7 ppm | Minimum Inhibitory Concentration, Compound Used Alone (Pseudomonas Stutzeri; [11]): 4.0 ppm | Minimum Inhibitory Concentration, Mixture (Pseudomonas Stutzeri; concentration of the component in ZP+PB mixture, ZP/PB ratio 16-128): 4.0 ppm | Minimum Inhibitory Concentration, Compound Used Alone (Fusarium solani; [11]): 64.0 ppm | Minimum Inhibitory Concentration, Mixture (Fusarium solani; [12]): 13.3 ppm | Minimum Inhibitory Concentration, Compound Used Alone (Chaetomium globosium; [11]): 67.0 ppm | Minimum Inhibitory Concentration, Mixture (Chaetomium globosium; [12]): 13.3 ppm | Minimum Inhibitory Concentration, Compound Used Alone (Pseudomonas oleovorans; [11]): 6.7 ppm | Minimum Inhibitory Concentration, Mixture (Pseudomonas oleovorans; concentration of the component in ZP+PB mixture, ZP/PB ratio 16-32): 4.0 ppm | Minimum Inhibitory Concentration, Compound Used Alone (Proteus mirabilis [2]; [11]): 4.0 ppm | Minimum Inhibitory Concentration, Mixture (Proteus mirabilis [2]; concentration of the component in ZP+PB mixture, ZP/PB ratio 1/32): 2.0 ppm | Minimum Inhibitory Concentration, Compound Used Alone (Aureobasidium pullulans; [11]): 8.0 ppm | Minimum Inhibitory Concentration, Mixture (Aureobasidium pullulans; concentration of the component in ZP+PB mixture, ZP/PB ratio 1/32-1/16): 4.0 ppm | Minimum Inhibitory Concentration, Compound Used Alone (Pseudomonas rubescens; [11]): 3.3 ppm | Minimum Inhibitory Concentration, Mixture (Pseudomonas rubescens; concentration of the component in ZP+PB mixture, ZP/PB ratio 256): 3.3 ppm | Minimum Inhibitory Concentration, Compound Used Alone (Candida albicans [3]; [11]): 8.0 ppm | Minimum Inhibitory Concentration, Mixture (Candida albicans [3]; [13]): 4.0 ppm | Minimum Inhibitory Concentration, Compound Used Alone (Citrobacter freundii; [11]): 8.0 ppm | Minimum Inhibitory Concentration, Mixture (Citrobacter freundii; concentration of the component in ZP+PB mixture, ZP/PB ratio 16-64): 3.3 ppm | Minimum Inhibitory Concentration, Compound Used Alone (Penicillin pinophilium; [11]): 16.0 ppm | Minimum Inhibitory Concentration, Mixture (Penicillin pinophilium; concentration of the component in ZP+PB mixture, ZP/PB ratio 1/8): 4.0 ppm | Minimum Inhibitory Concentration, Compound Used Alone (Gliocladium virens; [11]): 80.0 ppm | Minimum Inhibitory Concentration, Mixture (Gliocladium virens; concentration of the component in ZP+PB mixture, ZP/PB ratio 1-2): 24.0 ppm | Minimum Inhibitory Concentration, Compound Used Alone [4, 11]: 8.0 ppm | Minimum Inhibitory Concentration, Mixture ([4]; concentration of the component in ZP+PB mixture, ZP/PB ratio 1/4-1/2): 8.0 ppm | Minimum Inhibitory Concentration, Compound Used Alone (Pseudomonas aeruginosa [5]; [11]): 288.0 ppm | Minimum Inhibitory Concentration, Mixture (Pseudomonas aeruginosa [5]; concentration of the component in ZP+PB mixture, ZP/PB ratio 128-256): 112.0 ppm | Minimum Inhibitory Concentration, Compound Used Alone (Aspergillus niger; [11]): 32.0 ppm | Minimum Inhibitory Concentration, Mixture (Aspergillus niger; [13]): 16.0 ppm | Minimum Inhibitory Concentration, Compound Used Alone (Cephalosporium sp.; [11]): 16.0 ppm | Minimum Inhibitory Concentration, Mixture (Cephalosporium sp.; concentration of the component in ZP+PB mixture, ZP/PB ratio 1/16-1/8): 4.0 ppm | Minimum Inhibitory Concentration, Compound Used Alone (Alcaligens faecalis; [11]): 10.7 ppm | Minimum Inhibitory Concentration, Mixture (Alcaligens faecalis; concentration of the component in ZP+PB mixture, ZP/PB ratio 8-32): 6.7 ppm | Minimum Inhibitory Concentration, Compound Used Alone (Pseudomonas fluorescens [6]; [14]): 64 ppm | Minimum Inhibitory Concentration, Mixture Range (Pseudomonas fluorescens [6]; concentration of the component in ZP+PE mixtures, ZP/PE range ≤1/128-4): ≤1-16 ppm | Minimum Inhibitory Concentration, Compound Used Alone (Proteus mirabilis [7]; [14]): 8 ppm | Minimum Inhibitory Concentration, Mixture Range (Proteus mirabilis [7]; concentration of the component in ZP+PE mixtures, ZP/PE range 1/1024): 4 ppm | Minimum Inhibitory Concentration, Compound Used Alone (Candida albicans [8]; [14]): 16 ppm | Minimum Inhibitory Concentration, Mixture Range (Candida albicans [8]; concentration of the component in ZP+PE mixtures, ZP/PE range 1/2048-1/4): 1-8 ppm | Minimum Inhibitory Concentration, Compound Used Alone [9, 14]: 16 ppm | Minimum Inhibitory Concentration, Mixture Range ([9]; concentration of the component in ZP+PE mixtures, ZP/PE range 1/4-4): 8-16 ppm | Minimum Inhibitory Concentration, Compound Used Alone (Pseudomonas aeruginosa [10]; [14]): 128 ppm | Minimum Inhibitory Concentration, Mixture Range (Pseudomonas aeruginosa [10]; concentration of the component in ZP+PE mixtures, ZP/PE range 2-8): 16-32 ppm

From patent US5696083A, “Personal care composition containing pyrithione and polymyxin” (Olin Corporation, priority 1994, dated 1997)
